Test results published in patent US20160340647A1, “COMPOSITIONS AND METHODS FOR INDUCING DIFFERENTIATION OF STEM CELLS” (BIODEMAK LLC, priority 2014, published 2016).

Columns and labels:
[1] = test system: GSCs obtained from the U87 cell line; assay: Cell differentiation of GSCs (phase contrast morphology, western blot); assay type: cell-based; settings: for cell differentiation of GSCs (FIG. 6): treatment 2, two days
Protocol: (§1) Sulindac was obtained from Sigma.
(§2) Imaging and Immunocytochemistry: • Phase contrast pictures were obtained using an AmScope camera attached to a Nikon TMS microscope. Indirect immunocytochemistry (ICC) was performed as described previously. Briefly, cells were mechanically disaggregated and plated on poly-L-Lysine (PLL). For ICC the following markers were used: Ki67 for proliferative cells; nestin for NSC; beta-tubulin III for neurons; GFAP for astrocytes and 01 for oligodendrocytes. Epifluorescence microscopes (Leica and Nikon) were used for pictures, counting and visualization of the immunocytochemistry. The total number of neurons was quantified by counting a minimum of 15 fields per treatment in triplicates or quadruplicates and normalized vs. non-treated cultures.

[2] = test system: GSCs obtained from the U87 cell line; assay: Cell viability of GSCs after oxidizing agents (CellTiter 96 Aqueous One); settings: for GSC killing in combination with oxidizing agents (FIG. 7): treatment 2, 250 uM epimer, 200 uM TBHP
[3] = test system: NSCs; assay: Cell viability of NSCs after TBHP (CellTiter 96 Aqueous One); assay type: cell-based, mice; settings: TBHP two hours
Protocol: (§3) NSCs were obtained from the hippocampi of PO BL6 mice and cultured in DMEM/F12 medium (Gibco) containing B27 (Gibco), epidermal growth factor (EGF, 20 ng/ml. Invitrogen) and basic fibroblast growth factor (bFGF 10 ng/ml. Peprotech). To induce cell differentiation, NSC where plated on poli-L-lysine (Sigma) were NSC spontaneously differentiate into neurons, astrocytes and oligodendrocytes as previously described (Lopez-Toledano M A & Shelanski M L (2004) J. Neurosci. 24(23):5439-5444).
as §1
(§4) Background absorbance was subtracted from each sample.

[4] = test system: RTP801 levels in GSCs; assay: RTP801 levels in GSCs
[5] = test system: RTP801 levels in U87 cells; assay: RTP801 levels in U87 cells; settings: U87 cells treated 72 hours at the same day of plating
[6] = test system: NSCs; assay: Neuronal differentiation of NSCs (beta-tubulin III immunocytochemistry, number of neurons vs control); assay type: cell-based, mice; settings: treatment 1: floating NSCs 24 hours with 500 microMolar sulindac, plated on PLL another 24 hours
Protocol: as §3, §1, §2

[7] = test system: astrocytes; assay: Cell viability of astrocytes after TBHP (CellTiter 96 Aqueous One); assay type: cell-based, mice; settings: astrocytes plated seven days, 48 hours 500 μM sulindac
From the text: To obtain a pure culture of astrocytes, NSCs were differentiated in DMEM+10% FBS (both of Gibco) for seven days, trypsinized and re-plated in a new flask with the same medium. Under these circumstances, close to 100% of the cells become astrocytes (GFAP^+ cells).
as §1, §4

[8] = 3 mM As2O3, 30 mM DCA or 400 nM DOX

## CC(C)Cc1ccc(C(C)C(=O)O)cc1 (centres unmarked) [ibuprofen]
[1]; 400 uM
  cell differentiation of GSCs (FIG. 6): no significant differentiation

## CC1=C(CC(=O)O)c2cc(F)ccc2/C1=C\c1ccc([S@@+](C)[O-])cc1 [sulindac R epimer]
[2]; [8]
  GSC killing in combination with oxidizing agents (FIG. 7): enhanced killing

## CC1=C(CC(=O)O)c2cc(F)ccc2/C1=C\c1ccc([S@+](C)[O-])cc1 [sulindac S-epimer]
[2]; [8]
  GSC killing in combination with oxidizing agents (FIG. 7): enhanced killing

## CC1=C(CC(=O)O)c2cc(F)ccc2/C1=C\c1ccc(S(C)(=O)=O)cc1 [sulindac sulfone]
[1]; 25 uM
  cell differentiation of GSCs (FIG. 6): lower activity

## CC1=C(CC(=O)O)c2cc(F)ccc2/C1=C\c1ccc([S+](C)[O-])cc1 (centres unmarked) [sulindac]
[1]; 500 microMolar sulindac
  neuronal differentiation of GSC by Western blot (nestin, DCX, actin): higher neuronal differentiation
[1]; treatment 1: floating GSCs 24 hours with 500 microMolar sulindac, plated on PLL another 24 hours
  cell differentiation of GSCs (morphology) vs vehicle: clear differentiation effect
[1]; 500 uM
  cell differentiation of GSCs (FIG. 6): lower activity
[3]; treatment 1, floating NSCs, 500 μM sulindac
  effect on TBHP-induced death of NSCs: protected floating NSCs from TBHP-induced death
[3]; treatment 2, plated NSCs, 500 μM sulindac 48 hours
  effect on TBHP-induced cell death of NSCs: complete protection against TBHP-induced cell death
[4]; GSCs at 0+72 (both floating and plated), 0+3 and 0+6
  change of RTP801 levels: increase
[4]; GSCs, sulindac added at the 3rd dpp for 3 days
  change of RTP801 levels: decrease in RTP801
[2]; 48 hours, 500 uM sulindac, TBHP, 3 mM As2O3, 30 mM DCA or 400 nM DOX
  GSC sensitivity to different oxidative agents (FIG. 7): increase GSC sensitivity
[2]; treatment 1, 500 μM sulindac 24 hours, TBHP two hours
  effect on TBHP-induced cell death of floating undifferentiated GSCs: no effect
[2]; treatment 2, 500 μM sulindac, TBHP two hours
  effect on TBHP-induced cell death of plated GSCs: increased TBHP-induced cell death
[5]
  change of RTP801 levels: reduction in RTP801 levels
[6]
  number of neurons (beta-tubulin III+) vs vehicle: significant increase in the number of neurons
[7]
  effect on TBHP-induced cell death of astrocytes: very similar protection
